According to article PMC11565046, “Rational design of 2H-chromene-based antiphytovirals that inhibit virion assembly by outcompeting virus capsid-RNA interactions” (iScience, 2024):
Read-outs that look alike come from different tables or passages of the source.

Legend:
[1] = system: PVY; test: Protective activity against PVY, half-leaf method on Chenopodium amaranticolor; format: in vivo; conditions: Potato virus Y, in Chenopodium amaranticolor; 500 μg/mL; Chenopodium amaranticolor leaves; average of three replicates
Method: (§1) According to previous reports,[46] PVY was infested in Nicotiana tabacum K326, and PVY was harvested and purified after showing severe infection symptoms on the leaves. The literature-guided protocol was followed to assess the curative, prophylactic, and […] potential of the target compounds under investigation.[15]
A 500 μg/mL solution of the targeted compound was delicately applied to one side of C. amaranticolor leaves, while the other side was treated with a 1% Tween 80 aqueous solution. The plants were positioned in a greenhouse set at 25°C. Following a 24 h period, the entire leaf surface was inoculated with PVY by uniformly distributing 200–300 mesh emery. After 1.5 h, the emery was washed off with water, and the plants were returned to the greenhouse. After 5–7 days, the number of necrotic spots was tallied, with the assessment based on the greenhouse population. Each compound was tested in triplicate, and the average inhibition rate was subsequently calculated.

[2] = system: PVY; test: Inactivating activity against PVY, half-leaf method on Chenopodium amaranticolor; format: in vivo, potato virus Y; conditions: Potato virus Y, in Chenopodium amaranticolor
Method: as §1
Target compound solution (1,000 μg/mL) and 2 × virus solution were combined in equal quantities and incubated for 30 min. Evenly distribute emery onto the leaf blades, and apply the mixture of virus and compound solution onto the right side of C. amaranticolor leaf blades. Following this, an identical quantity of a 1× virus solution was applied to the untreated side of the leaf. Following a duration of 1.5 h, the emery residue present on the leaf surface was removed using a rinsing process utilizing water. The plants were incubated within a controlled greenhouse environment, maintaining a consistent temperature of 25°C. After 5−7 days, they proceeded to statistics the number of necrotic spots on the leaves. For each chemical, triplicate experiments were undertaken, and the average percentage of inhibition was subsequently determined.

[3] = system: PVY; test: Curative activity against PVY, half-leaf method on Chenopodium amaranticolor; format: in vivo; conditions: Potato virus Y, in Chenopodium amaranticolor; 500 μg/mL; Chenopodium amaranticolor leaves; average of three replicates
Source text: as §1
To assess the curative effectiveness against PVY, a uniform layer of 200–300 mesh emery was applied to the leaves of C. amaranticolor, followed by rubbing with a virus solution. For 1.5 h, then the emery was washed off with water. After the leaves naturally dried, a 500 μg/mL solution of the test compound was carefully applied to one side of the leaf, while the opposite side received a 1% Tween 80 solution as a control. The plants were subsequently incubated in a greenhouse maintained at 25°C. After 5−7 days, the presence of necrotic spots on the leaves was recorded, with each compound tested on three replicate plants. The average inhibition rate was determined by analyzing the data from these replications.

[4] = Chenopodium amaranticolor leaves, read-out: EC50 for inactivating activity
[5] = inactivating activity, Table S1, read-out: Experimental pEC50 (converted)

SMILES | inhibition at 500 µg/mL [1] [%] | EC50 [2, 4] [µg/mL] | EC50 [2, 5] [µM] | melting point [°C] | inhibition at 500 µg/mL [3] [%]
CC1(C)C=Cc2c(ccc(/C=N/c3ccc(NS(=O)(=O)c4cccc(F)c4)cc3)c2O)O1 [Compound C7] | 60 to 70 | 100 ± 5.7 | 222 | 164 to 166 | 
CC1(C)C=Cc2c(ccc(/C=N/c3ccc(NS(=O)(=O)c4ccc(Br)s4)cc3)c2O)O1 [Compound C10] | 60 to 70 | 492 ± 13.3 | 951 | 140 to 142 | 60 to 70
CC1(C)C=Cc2c(ccc(/C=N/c3ccc(NS(=O)(=O)c4cccc(Br)c4)cc3)c2O)O1 [Compound C16] | 60 to 70 | 688 ± 17.2 | 1350 | 161 to 163 | 60 to 70
CC1(C)C=Cc2c(ccc(/C=N/c3ccc(NS(=O)(=O)c4ccc(Cl)s4)cc3)c2O)O1 [Compound C24] | 60 to 70 | 754 ± 10.3 | 1590 | 141 to 143 | 60 to 70
CC1(C)C=Cc2c(ccc(/C=N/c3ccc(NS(=O)(=O)c4ccccc4Cl)cc3)c2O)O1 [Compound C25] |  | 244 ± 10.2 | 521 | 166 to 168 | 
CC1(C)C=Cc2c(ccc(/C=N/c3ccc(NS(=O)(=O)c4cc(F)cc(F)c4)cc3)c2O)O1 [Compound C26] | 60 to 70 | 100 ± 4.5 | 213 | 207 to 209 | 60 to 70
Cc1cccc(S(=O)(=O)Nc2ccc(/N=C/c3ccc4c(c3O)C=CC(C)(C)O4)cc2)c1 [Compound C27] | 60 to 70 | 90.3 ± 7.1 | 202 | 152 to 154 | 60 to 70
CC1(C)C=Cc2c(ccc(/C=N/c3ccc(NS(=O)(=O)Cc4ccccc4)cc3)c2O)O1 [Compound C28] | 60 to 70 | 503 ± 12.8 | 1120 | 143 to 145 | 60 to 70
CCCCS(=O)(=O)Nc1ccc(/N=C/c2ccc3c(c2O)C=CC(C)(C)O3)cc1 [Compound C29] | 60 to 70 | 682 ± 10 | 1650 | 132 to 134 | 60 to 70
CC1(C)C=Cc2c(ccc(/C=N/c3ccc(NS(=O)(=O)c4ccc(OC(F)(F)F)cc4)cc3)c2O)O1 [Compound C30] |  | 834 ± 18.3 | 1610 | 128 to 130 | 
CC1(C)C=Cc2c(ccc(/C=N/c3ccc(NS(=O)(=O)c4ccc(Cl)cc4Cl)cc3)c2O)O1 [Compound C31] |  | 976 ± 20 | 1950 | 154 to 156 | 
CC1(C)C=Cc2c(ccc(/C=N/c3ccc(NS(=O)(=O)c4c(F)cccc4F)cc3)c2O)O1 [Compound C32] | 60 to 70 | 88.3 ± 4 | 188 | 191 to 193 | 60 to 70
CC1(C)C=Cc2c(ccc(/C=N/c3ccc(NS(=O)(=O)c4ccccc4Br)cc3)c2O)O1 [Compound C33] |  | 139 ± 3.2 | 272 | 170 to 172 | 
CC1(C)C=Cc2c(ccc(/C=N/c3ccc(NS(=O)(=O)c4ccc(Br)cc4)cc3)c2O)O1 [Compound C34] | 60 to 70 | 147 ± 8.3 | 288 | 158 to 160 | 60 to 70
CC1(C)C=Cc2c(ccc(/C=N/c3ccc(NS(=O)(=O)c4cccc(C(F)(F)F)c4)cc3)c2O)O1 [Compound C35] |  | 803 ± 12.3 | 1600 | 123 to 125 | 
CC1(C)C=Cc2c(ccc(/C=N/c3ccc(NS(=O)(=O)c4cccc(Cl)c4)cc3)c2O)O1 [Compound C36] | 60 to 70 | 557 ± 14.3 | 1190 | 189 to 191 | 60 to 70
CC1(C)C=Cc2c(ccc(/C=N/c3ccc(NS(=O)(=O)c4cccc(Cl)c4F)cc3)c2O)O1 [Compound C37] | 60 to 70 | 306 ± 11 | 631 | 193 to 195 | 60 to 70
Cc1c(Cl)cccc1S(=O)(=O)Nc1ccc(/N=C/c2ccc3c(c2O)C=CC(C)(C)O3)cc1 [Compound C38] | 60 to 70 | 410 ± 9.7 | 851 | 193 to 195 | 60 to 70
Cc1noc(C)c1S(=O)(=O)Nc1ccc(/N=C/c2ccc3c(c2O)C=CC(C)(C)O3)cc1 [Compound C39] |  | 397.1 ± 2.3 | 877 | 195 to 197 | 
CC1(C)C=Cc2c(ccc(C=Nc3ccc(NS(=O)(=O)CC45CCC(CC4=O)C5(C)C)cc3)c2O)O1 (stereo not shown) [Compound C40] |  | 204 ± 7.1 | 402 | 186 to 188 | 
CC(C)=CCCC1(C)C=Cc2c(ccc(/C=N/c3ccc(NS(=O)(=O)c4ccc(Cl)cc4)cc3)c2O)O1 (stereo not shown) [Compound C41] |  | 781 ± 15.3 | 1460 | 115 to 117 | 
CC(C)=CCCC1(C)C=Cc2c(ccc(/C=N/c3ccc(NS(=O)(=O)c4ccc(Cl)s4)cc3)c2O)O1 (stereo not shown) [Compound C43] |  | 512 ± 11 | 944 | 97 to 99 | 
CC(C)=CCCC1(C)C=Cc2c(ccc(/C=N/c3ccc(NS(=O)(=O)c4cccc(C)c4)cc3)c2O)O1 (stereo not shown) [Compound C44] |  | 882 ± 17.3 | 1710 | 84 to 86 | 
CC(C)=CCCC1(C)C=Cc2c(ccc(/C=N/c3ccc(NS(=O)(=O)c4cccc(F)c4)cc3)c2O)O1 (stereo not shown) [Compound C45] |  | 516 ± 9 | 991 | 113 to 115 | 
CC(C)=CCCC1(C)C=Cc2c(ccc(/C=N/c3ccc(NS(=O)(=O)c4ccc(C(F)(F)F)cc4)cc3)c2O)O1 (stereo not shown) [Compound C46] |  | 522 ± 8.1 | 916 | 130 to 132 | 
CC(C)=CCCC1(C)C=Cc2c(ccc(/C=N/c3ccc(NS(=O)(=O)c4c(F)cccc4F)cc3)c2O)O1 (stereo not shown) [Compound C47] |  | 630 ± 11.2 | 1170 | 80 to 82 | 
CC(C)=CCCC1(C)C=Cc2c(ccc(/C=N/c3ccc(NS(=O)(=O)c4cc(F)cc(F)c4)cc3)c2O)O1 (stereo not shown) [Compound C48] |  | 717 ± 17.8 | 1330 | 138 to 140 | 
CC(C)=CCCC1(C)C=Cc2c(ccc(/C=N/c3ccc(NS(=O)(=O)c4ccc(Br)s4)cc3)c2O)O1 (stereo not shown) [Compound C49] |  | 553 ± 9.3 | 944 | 75 to 77 | 
